The source made the active and inactive calls. Some results are limits rather than exact numbers.

The results in this text go back to ChEMBL document CHEMBL1201862, “PubChem BioAssay data set” (2004).

Common to all, as to assay type: functional
Assay [1] can be described thus: Luminescence Cell-Based Dose Retest to Confirm Inhibitors of Cancer Stem Cells. [Related pubchem assays (depositor defined):AID2717, AID2721]. As to conditions: Homo sapiens.
The target in assay [2] is T1, Intestinal-type alkaline phosphatase (Homo sapiens, UniProt P09923). In words: human intestinal alkaline phosphatase activators, dose response, biochemical, luminescence, uHTS hits (AID 463120).
T1 sequence (P09923 whole entry): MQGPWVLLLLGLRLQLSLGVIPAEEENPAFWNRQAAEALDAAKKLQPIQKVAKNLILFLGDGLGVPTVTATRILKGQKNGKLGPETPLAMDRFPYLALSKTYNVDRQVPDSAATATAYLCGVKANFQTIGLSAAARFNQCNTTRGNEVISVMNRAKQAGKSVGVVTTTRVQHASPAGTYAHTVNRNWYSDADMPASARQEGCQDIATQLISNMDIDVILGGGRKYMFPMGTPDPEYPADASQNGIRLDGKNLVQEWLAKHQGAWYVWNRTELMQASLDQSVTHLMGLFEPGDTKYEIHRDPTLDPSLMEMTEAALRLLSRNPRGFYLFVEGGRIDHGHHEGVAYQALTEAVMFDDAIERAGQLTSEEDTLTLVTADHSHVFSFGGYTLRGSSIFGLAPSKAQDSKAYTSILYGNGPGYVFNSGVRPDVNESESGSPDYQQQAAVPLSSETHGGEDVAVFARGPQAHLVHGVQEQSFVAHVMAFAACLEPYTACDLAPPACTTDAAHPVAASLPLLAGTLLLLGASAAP
In assay [3] the target is T2, Alkaline phosphatase, tissue-nonspecific isozyme (Homo sapiens, UniProt P05186).
T2 sequence (P05186 whole entry): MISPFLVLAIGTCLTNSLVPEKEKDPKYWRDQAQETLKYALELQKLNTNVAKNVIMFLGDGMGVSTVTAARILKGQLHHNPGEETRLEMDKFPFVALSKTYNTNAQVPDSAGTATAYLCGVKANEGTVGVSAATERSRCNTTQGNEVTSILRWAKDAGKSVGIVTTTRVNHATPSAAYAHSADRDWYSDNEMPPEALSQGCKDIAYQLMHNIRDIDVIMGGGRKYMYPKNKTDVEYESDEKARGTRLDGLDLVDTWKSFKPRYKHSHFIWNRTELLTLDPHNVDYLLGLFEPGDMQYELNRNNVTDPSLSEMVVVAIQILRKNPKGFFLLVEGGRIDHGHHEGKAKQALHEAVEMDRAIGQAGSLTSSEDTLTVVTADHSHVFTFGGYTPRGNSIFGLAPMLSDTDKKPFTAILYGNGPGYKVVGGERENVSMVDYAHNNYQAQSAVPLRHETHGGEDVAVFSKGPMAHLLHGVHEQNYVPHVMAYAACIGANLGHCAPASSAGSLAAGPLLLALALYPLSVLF
In words: TNAP enzyme activators, dose response, selectivity assay for human IAP activator project, biochemical, TNAP isozyme, human IAP uHTS hits (AID 488886).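 Further: potency of compounds raising TNAP activity as a selectivity check on IAP activators.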

Assay [4] deals with Intestinal-type alkaline phosphatase (Mus musculus, UniProt P24822). In words: PubChem AID 488874.
Intestinal-type alkaline phosphatase (Mus musculus, UniProt P24822), sequence (P24822 whole entry): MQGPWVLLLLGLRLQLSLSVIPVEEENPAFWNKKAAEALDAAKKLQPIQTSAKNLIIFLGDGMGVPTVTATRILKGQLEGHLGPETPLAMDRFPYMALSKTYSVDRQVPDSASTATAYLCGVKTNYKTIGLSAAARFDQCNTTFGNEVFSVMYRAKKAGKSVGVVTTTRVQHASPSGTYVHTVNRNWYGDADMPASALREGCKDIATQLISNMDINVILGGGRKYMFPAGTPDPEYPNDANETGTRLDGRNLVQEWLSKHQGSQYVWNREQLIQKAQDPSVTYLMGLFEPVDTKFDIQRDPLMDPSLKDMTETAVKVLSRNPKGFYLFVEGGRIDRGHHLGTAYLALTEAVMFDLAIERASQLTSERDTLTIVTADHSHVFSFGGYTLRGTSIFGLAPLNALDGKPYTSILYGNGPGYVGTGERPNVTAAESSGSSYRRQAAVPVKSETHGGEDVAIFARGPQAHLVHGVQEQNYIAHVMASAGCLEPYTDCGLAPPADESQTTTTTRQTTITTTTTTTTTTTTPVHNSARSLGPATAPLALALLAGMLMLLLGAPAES
The target in assay [5] is T1, Intestinal-type alkaline phosphatase. In words: human IAP activators, dose response, biochemical, luminescent, uHTS hits, set 2 (AID 488817).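 Further: potency of activators that raise enzyme activity.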
A further assay addresses T3, Hexokinase-1 (Homo sapiens, UniProt P19367).
T3 sequence (P19367 whole entry): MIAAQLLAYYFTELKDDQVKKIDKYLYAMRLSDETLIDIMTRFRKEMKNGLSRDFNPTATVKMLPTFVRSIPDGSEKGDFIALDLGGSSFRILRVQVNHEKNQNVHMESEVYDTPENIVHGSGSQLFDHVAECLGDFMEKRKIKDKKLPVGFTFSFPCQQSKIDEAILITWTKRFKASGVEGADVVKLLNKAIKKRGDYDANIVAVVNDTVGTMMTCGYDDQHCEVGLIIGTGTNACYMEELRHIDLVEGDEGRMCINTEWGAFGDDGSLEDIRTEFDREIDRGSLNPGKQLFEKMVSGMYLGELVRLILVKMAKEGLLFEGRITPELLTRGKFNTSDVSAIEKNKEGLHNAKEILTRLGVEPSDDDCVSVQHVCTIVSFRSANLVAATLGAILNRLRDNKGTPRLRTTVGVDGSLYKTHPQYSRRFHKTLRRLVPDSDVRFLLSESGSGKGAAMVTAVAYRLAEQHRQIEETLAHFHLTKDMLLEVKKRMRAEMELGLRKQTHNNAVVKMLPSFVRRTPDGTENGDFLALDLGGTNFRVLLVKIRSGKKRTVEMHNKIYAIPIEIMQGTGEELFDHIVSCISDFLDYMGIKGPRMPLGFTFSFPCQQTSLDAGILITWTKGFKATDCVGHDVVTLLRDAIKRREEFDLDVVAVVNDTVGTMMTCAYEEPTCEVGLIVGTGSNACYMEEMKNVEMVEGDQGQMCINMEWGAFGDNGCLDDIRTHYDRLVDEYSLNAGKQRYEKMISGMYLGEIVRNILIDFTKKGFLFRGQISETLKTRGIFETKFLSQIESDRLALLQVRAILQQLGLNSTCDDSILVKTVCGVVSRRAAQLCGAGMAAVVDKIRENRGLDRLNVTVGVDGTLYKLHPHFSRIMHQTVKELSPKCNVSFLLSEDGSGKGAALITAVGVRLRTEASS
In words: hexokinase 1 activators, dose response, selectivity assay for HKDC1 activator project, biochemical (AID 504762).

The target of a further assay is T4, Hexokinase HKDC1 (Homo sapiens, UniProt Q2TB90).
T4 sequence (Q2TB90 whole entry): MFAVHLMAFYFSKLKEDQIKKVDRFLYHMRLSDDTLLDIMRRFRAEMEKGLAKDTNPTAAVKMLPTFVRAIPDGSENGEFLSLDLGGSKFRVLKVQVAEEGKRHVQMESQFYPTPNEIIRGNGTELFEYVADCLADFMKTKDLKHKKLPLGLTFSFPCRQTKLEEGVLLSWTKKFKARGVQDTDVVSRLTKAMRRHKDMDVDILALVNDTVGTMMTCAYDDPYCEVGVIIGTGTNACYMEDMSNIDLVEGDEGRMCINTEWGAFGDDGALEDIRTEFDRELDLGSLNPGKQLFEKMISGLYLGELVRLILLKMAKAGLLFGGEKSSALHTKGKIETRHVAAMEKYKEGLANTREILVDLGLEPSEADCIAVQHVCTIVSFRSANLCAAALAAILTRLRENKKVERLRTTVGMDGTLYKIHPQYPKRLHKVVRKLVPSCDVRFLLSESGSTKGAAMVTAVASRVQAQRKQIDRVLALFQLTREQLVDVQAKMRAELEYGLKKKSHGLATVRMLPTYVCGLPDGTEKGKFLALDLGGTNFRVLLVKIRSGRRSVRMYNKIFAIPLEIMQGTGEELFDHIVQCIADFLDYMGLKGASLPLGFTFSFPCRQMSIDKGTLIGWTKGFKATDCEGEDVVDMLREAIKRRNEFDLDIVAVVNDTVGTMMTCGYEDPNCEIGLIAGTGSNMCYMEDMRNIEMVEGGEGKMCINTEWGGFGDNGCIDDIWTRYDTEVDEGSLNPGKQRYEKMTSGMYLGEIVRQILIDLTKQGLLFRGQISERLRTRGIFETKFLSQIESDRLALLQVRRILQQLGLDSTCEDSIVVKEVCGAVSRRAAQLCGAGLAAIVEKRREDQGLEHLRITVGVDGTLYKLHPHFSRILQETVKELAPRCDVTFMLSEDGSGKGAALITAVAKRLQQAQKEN
The experiment in a line: HKDC1 hexokinase activators, dose response, biochemical, W721R variant (AID 504730).

The target of assay [6] is T5, G-protein coupled receptor 35 (Homo sapiens, UniProt Q9HC97). In words: SAR analysis of Antagonists of the GPR35 Receptor using an Image-Based Assay - Set 3. [Related pubchem assays (depositor defined):AID2013, AID2026].
T5 sequence (Q9HC97 whole entry): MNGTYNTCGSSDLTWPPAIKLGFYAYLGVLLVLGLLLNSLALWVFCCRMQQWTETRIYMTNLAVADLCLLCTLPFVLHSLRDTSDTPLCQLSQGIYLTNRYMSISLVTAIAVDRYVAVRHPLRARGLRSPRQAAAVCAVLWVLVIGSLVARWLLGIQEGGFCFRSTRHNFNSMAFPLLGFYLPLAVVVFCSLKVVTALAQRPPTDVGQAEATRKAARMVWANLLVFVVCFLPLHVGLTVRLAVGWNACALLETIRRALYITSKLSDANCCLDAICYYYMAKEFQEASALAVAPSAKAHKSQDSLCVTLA
Assay [7] deals with T5, G-protein coupled receptor 35. In words: SAR analysis of Agonists of the GPR35 Receptor using an Image-Based Assay - Set 2. [Related pubchem assays (depositor defined):AID2013, AID2026].
In assay [8] the target is G-protein coupled receptor 55 (Homo sapiens, UniProt Q9Y2T6). In words: GPR55 antagonist potency of analogs, SAR follow-up, imaging, U2OS, beta-arrestin-GFP, LPI agonist, set 2 (AID 2820).
G-protein coupled receptor 55, sequence (Q9Y2T6 whole entry): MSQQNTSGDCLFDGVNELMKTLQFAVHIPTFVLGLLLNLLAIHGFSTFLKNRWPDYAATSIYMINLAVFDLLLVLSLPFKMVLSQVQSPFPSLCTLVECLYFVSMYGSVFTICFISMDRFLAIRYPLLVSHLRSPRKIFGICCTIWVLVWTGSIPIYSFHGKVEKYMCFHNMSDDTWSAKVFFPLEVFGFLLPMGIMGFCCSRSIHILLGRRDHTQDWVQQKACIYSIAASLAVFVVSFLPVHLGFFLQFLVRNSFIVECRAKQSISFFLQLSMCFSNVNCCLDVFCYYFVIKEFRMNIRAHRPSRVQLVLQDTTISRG
Assay [9] concerns the target T6, Cannabinoid receptor 2 (Homo sapiens, UniProt P34972). In words: SAR analysis of antagonists of the Cannabinoid Receptor 2 using an Image-Based Assay. [Related pubchem assays (depositor defined):AID2013, AID2026].
The target in assay [10] is T7, Cannabinoid receptor 1 (Homo sapiens, UniProt P21554). The experiment in a line: SAR analysis of agonists of the Cannabinoid Receptor 1 using an Image-Based Assay - Set 2. [Related pubchem assays (depositor defined):AID2013, AID2026].
T7 sequence (P21554 whole entry): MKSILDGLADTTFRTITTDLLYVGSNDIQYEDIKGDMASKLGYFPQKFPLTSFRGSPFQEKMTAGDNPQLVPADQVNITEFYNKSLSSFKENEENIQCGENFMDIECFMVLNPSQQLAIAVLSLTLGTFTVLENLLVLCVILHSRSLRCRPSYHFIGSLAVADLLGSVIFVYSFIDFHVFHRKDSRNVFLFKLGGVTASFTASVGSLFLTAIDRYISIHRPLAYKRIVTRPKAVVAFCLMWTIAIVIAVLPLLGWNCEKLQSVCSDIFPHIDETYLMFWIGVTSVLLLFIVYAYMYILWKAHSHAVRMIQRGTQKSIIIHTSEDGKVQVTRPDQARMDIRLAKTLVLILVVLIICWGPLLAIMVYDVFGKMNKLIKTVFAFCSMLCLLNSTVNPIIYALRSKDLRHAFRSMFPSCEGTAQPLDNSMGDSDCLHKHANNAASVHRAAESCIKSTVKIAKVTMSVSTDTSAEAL
The target of assay [11] is T6, Cannabinoid receptor 2. In words: SAR analysis of agonists of the Cannabinoid Receptor 2 using an Image-Based Assay. [Related pubchem assays (depositor defined):AID2013, AID2026].
Assay [12] has as its target T7, Cannabinoid receptor 1. In words: SAR analysis of antagonists of the Cannabinoid Receptor 1 using an Image-Based Assay - Set 2. [Related pubchem assays (depositor defined):AID2013, AID2026].
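Wherever AC50 is given: cells exposed to compound for roughly 70 hours or longer before luminescence read.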

T6 sequence (P34972 whole entry): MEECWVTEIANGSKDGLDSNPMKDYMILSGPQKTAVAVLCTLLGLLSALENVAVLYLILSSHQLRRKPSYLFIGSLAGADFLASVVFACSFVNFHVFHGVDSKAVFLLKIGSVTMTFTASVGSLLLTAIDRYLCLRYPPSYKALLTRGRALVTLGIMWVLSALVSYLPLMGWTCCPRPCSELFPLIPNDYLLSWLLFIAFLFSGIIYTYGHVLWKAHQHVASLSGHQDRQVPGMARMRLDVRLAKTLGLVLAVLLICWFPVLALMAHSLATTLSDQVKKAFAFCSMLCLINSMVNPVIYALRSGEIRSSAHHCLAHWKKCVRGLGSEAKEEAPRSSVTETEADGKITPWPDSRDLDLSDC

On to `O=C(Nc1ccon1)c1nc[nH]c1C(=O)NCc1ccccc1`, for which, in [1], the AC50 was 0.76 µM (active). Further, the EC50 in assay [2] is 14.2 µM (active); in assay [3], 16.4 µM (active); in [5], 13.9 µM (active). In [4], the IC50 is 38.8 µM (active).
On to `Cc1ccc(/N=C2\C(=S)N(c3ccc(C)cc3)C(=N)N2/N=C/c2ccc(Cl)cc2)cc1`, for which the EC50 at Hexokinase-1 and on Hexokinase HKDC1 was > 80 µM (inactive) in each case.
As for `COc1ccc(CNCCC(c2ccccc2)c2ccc3c(c2)OCO3)cc1` (centres undefined), the IC50 in assay [6] was > 32 µM (inactive); in assay [8] it was 0.917 µM (active); at Cannabinoid receptor 2 [9], > 32 µM (inactive); at Cannabinoid receptor 1 [12], 5.82 µM (active). Besides, the EC50 (in [7]; at Cannabinoid receptor 1 [10]; on Cannabinoid receptor 2 [11]) was > 32 µM (inactive) in each case.
